This passage reports inhibition results from ChEMBL document CHEMBL3108763, “[1,2,4]triazolo[4,3-a]phthalazines: inhibitors of diverse bromodomains” (J Med Chem, 2014).

In experiment [1] the target is T1, Transcription intermediary factor 1-alpha (Homo sapiens) (UniProt O15164).
T1 sequence (whole entry): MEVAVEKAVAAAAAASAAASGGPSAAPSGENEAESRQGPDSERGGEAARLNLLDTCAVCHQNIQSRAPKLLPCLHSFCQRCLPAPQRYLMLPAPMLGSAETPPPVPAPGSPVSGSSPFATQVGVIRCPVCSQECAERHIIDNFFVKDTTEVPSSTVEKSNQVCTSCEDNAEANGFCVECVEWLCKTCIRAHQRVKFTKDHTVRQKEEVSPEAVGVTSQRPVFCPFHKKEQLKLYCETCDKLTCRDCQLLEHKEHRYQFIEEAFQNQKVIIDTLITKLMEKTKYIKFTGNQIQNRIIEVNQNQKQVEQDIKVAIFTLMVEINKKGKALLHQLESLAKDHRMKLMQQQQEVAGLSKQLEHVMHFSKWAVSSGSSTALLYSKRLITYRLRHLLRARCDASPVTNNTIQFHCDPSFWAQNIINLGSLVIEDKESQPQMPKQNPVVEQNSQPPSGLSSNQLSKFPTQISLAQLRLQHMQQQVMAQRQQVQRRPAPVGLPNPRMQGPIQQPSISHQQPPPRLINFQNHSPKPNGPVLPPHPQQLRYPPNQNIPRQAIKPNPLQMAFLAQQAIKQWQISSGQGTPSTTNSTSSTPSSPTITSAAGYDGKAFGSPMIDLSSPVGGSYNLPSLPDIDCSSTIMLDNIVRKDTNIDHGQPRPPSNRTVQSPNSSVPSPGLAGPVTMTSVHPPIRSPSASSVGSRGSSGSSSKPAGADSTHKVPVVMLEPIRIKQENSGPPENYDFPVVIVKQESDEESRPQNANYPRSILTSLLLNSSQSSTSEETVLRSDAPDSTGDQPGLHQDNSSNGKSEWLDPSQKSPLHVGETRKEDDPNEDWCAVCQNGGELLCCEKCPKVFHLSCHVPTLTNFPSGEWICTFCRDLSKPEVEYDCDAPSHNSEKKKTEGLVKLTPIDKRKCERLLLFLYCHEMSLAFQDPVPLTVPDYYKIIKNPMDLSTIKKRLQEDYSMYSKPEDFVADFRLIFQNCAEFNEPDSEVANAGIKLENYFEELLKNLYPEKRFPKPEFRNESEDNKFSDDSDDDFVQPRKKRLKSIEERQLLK
The settings on record: 100 uM.

Experiment [2] addresses Protein polybromo-1 (Homo sapiens) (UniProt Q86U86). The settings on record: 100 uM.
The target in experiment [3] is Bromodomain adjacent to zinc finger domain protein 2B (Homo sapiens) (UniProt Q9UIF8). The settings on record: 100 uM.
Chain of Bromodomain adjacent to zinc finger domain protein 2B (Homo sapiens) (Q9UIF8 whole entry, the tested form may be a part): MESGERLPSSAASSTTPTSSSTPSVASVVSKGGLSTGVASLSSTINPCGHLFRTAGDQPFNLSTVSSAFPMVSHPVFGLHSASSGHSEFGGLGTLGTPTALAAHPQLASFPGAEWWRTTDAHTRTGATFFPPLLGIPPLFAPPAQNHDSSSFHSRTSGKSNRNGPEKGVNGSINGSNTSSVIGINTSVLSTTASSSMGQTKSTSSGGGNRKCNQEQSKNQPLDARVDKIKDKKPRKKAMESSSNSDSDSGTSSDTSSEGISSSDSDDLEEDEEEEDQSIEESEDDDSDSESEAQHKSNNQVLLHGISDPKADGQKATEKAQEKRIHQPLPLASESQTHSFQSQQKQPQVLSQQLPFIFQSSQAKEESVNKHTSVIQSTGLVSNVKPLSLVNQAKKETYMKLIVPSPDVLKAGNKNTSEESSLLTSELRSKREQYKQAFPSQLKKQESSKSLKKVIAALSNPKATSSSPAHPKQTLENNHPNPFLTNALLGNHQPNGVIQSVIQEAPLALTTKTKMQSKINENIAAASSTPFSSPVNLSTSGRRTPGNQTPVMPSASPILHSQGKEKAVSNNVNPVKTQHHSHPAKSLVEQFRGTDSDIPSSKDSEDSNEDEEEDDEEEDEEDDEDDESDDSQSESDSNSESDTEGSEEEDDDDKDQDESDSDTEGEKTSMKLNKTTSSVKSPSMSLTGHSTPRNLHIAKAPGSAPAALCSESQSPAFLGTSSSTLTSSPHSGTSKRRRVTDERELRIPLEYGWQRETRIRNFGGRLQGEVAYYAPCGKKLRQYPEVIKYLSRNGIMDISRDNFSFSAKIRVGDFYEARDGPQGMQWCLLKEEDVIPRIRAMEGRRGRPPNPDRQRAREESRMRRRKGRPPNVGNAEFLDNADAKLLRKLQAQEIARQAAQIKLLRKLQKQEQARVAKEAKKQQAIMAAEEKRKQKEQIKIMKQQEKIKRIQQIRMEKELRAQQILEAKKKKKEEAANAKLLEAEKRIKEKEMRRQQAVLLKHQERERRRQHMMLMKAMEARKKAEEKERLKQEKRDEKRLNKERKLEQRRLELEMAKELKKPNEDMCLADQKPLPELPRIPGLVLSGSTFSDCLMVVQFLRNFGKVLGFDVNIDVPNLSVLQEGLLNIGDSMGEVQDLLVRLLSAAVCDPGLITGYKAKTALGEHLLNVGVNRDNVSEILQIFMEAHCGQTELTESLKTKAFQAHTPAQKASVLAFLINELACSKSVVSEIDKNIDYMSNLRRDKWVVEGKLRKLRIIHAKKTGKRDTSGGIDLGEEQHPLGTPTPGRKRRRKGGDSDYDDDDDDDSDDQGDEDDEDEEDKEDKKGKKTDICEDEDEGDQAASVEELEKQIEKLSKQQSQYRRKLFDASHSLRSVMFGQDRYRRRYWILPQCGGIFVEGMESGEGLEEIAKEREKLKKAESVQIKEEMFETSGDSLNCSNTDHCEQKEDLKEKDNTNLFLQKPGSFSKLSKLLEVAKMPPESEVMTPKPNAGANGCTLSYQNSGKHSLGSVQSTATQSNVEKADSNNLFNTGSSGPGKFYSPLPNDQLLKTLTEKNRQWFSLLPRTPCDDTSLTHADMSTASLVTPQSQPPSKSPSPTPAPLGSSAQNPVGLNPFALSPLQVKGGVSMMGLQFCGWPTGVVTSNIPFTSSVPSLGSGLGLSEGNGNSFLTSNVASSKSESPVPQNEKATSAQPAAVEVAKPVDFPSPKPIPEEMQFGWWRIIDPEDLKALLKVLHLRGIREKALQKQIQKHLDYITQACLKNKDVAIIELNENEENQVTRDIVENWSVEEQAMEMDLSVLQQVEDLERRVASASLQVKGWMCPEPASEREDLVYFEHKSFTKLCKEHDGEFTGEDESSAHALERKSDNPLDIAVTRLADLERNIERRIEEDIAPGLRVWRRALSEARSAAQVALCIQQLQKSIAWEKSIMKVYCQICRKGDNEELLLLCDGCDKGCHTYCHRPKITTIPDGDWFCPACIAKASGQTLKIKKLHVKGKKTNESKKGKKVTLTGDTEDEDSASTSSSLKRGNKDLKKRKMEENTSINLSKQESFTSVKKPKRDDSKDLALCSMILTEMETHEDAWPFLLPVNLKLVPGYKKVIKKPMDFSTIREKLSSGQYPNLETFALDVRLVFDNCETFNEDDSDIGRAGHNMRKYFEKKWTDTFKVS
In experiment [4] the target is T1, Transcription intermediary factor 1-alpha (Homo sapiens). The following applies: 50 uM.

Structures are written as SMILES. Bounds are passed on as bounds.

Chain of Protein polybromo-1 (Homo sapiens) (Q86U86 whole entry, the tested form may be a part): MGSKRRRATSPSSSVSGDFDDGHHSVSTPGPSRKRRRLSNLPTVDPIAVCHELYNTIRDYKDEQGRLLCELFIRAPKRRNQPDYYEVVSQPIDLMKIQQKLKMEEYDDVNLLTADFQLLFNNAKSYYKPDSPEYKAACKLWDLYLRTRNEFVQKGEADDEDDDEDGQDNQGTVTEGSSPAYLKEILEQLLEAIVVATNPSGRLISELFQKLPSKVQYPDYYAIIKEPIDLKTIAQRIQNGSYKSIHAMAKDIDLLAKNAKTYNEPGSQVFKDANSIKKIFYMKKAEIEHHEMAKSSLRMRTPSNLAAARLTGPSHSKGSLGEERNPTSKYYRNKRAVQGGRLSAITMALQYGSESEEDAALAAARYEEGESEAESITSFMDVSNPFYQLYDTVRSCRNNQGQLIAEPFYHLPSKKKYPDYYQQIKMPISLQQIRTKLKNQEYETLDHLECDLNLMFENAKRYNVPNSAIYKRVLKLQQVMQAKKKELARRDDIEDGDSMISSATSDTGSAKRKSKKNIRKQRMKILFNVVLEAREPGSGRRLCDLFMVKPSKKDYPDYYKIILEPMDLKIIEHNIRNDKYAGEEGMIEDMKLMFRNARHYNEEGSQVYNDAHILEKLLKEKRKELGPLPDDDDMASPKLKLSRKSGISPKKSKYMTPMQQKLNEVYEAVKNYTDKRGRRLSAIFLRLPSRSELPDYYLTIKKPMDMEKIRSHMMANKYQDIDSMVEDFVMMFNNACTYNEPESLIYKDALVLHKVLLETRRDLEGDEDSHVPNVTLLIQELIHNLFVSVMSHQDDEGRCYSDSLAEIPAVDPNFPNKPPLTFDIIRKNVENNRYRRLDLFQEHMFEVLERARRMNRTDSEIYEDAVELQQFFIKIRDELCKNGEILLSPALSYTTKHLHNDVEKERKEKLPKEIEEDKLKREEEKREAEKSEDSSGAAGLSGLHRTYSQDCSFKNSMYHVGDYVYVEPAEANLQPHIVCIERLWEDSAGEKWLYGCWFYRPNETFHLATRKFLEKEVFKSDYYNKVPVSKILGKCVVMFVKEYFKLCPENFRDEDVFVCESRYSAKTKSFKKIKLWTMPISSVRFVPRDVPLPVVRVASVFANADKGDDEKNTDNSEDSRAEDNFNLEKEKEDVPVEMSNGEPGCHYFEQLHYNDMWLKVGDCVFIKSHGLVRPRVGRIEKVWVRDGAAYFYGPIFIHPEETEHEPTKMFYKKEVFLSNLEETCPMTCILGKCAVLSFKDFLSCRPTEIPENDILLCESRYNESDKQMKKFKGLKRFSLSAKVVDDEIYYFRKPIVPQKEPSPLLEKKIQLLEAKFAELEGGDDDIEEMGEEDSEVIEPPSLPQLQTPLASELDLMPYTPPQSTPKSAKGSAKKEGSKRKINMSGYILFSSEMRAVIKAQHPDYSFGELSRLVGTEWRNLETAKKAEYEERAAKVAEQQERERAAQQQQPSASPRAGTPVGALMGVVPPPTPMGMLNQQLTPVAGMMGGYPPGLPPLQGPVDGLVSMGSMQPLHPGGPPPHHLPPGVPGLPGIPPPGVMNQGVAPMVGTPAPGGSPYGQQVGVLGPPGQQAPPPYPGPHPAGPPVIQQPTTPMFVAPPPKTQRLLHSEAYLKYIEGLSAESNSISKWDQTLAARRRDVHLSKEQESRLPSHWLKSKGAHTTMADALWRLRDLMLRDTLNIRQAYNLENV

As to `Cc1ccc(-c2nn3c(C)nnc3c3ccccc23)cc1NS(C)(=O)=O`, the inhibition in experiment [1], in experiment [2] and in experiment [3] was less than 25% in each case.

As for `Cc1nnc2c3ccccc3c(-c3ccc(N4CCOCC4)c(NS(C)(=O)=O)c3)nn12`, in experiment [4], the inhibition (as a rule, the percentage by which the read-out fell short of the control) was less than 30%.

`CCC(=O)Nc1cc(-c2nn3c(C)nnc3c3ccccc23)ccc1C`: the inhibition in experiment [1], in experiment [2] and in experiment [3] was less than 25% throughout.

`Cc1nnc2c3ccccc3c(-c3ccc(N4CCOCC4)c(NS(=O)(=O)c4ccc(Cl)cc4)c3)nn12` had an inhibition in experiment [4] of less than 30%.

As for `Cc1nnc2c3ccccc3c(-c3ccc(N4CCOCC4)c(NS(=O)(=O)c4ccccc4Cl)c3)nn12`, the inhibition in experiment [4] was less than 30%.

Consider `CNS(=O)(=O)c1cc(-c2nn3c(C)nnc3c3ccccc23)ccc1C`, for which the inhibition in experiment [1], in experiment [2] and in experiment [3] was less than 25% in each case.

For the compound `Cc1ccc(-c2nn3c(C)nnc3c3ccccc23)cc1S(=O)(=O)N(C)C`, the inhibition in experiment [1], in experiment [2] and in experiment [3] was less than 25% each time.

The compound `COc1ccc(S(=O)(=O)Nc2cc(-c3nn4c(C)nnc4c4ccccc34)ccc2N2CCN(C)CC2)cc1` had an inhibition in experiment [4] of less than 30%.
